Measurements taken from US8747537B2, “Ink containing heterocyclic azo dye, and dye for use in said ink” (Mitsubishi Chemical Corporation, priority 2010, dated 2014).

assay: Solubility test in low-polarity solvents (saturated solution, λmax, solubility, εC); type: physicochemical; conditions: Isopar G
Protocol: The solubility of each dye in n-decane, tetradecane, Isopar M, Isopar G, and decalin was examined in the following manner. Each dye was added to each solvent until a dissolution residue came to remain, and this mixture was subjected to a 30-minute ultrasonic treatment at 30 degrees. The resultant mixture was allowed to stand at 5° C. for 24 hours and then subjected to centrifugal filtration (centrifugal force, 5,200×g) with a 0.1-μm filter using a microcentrifuge. The saturated solution obtained was diluted to an adequate concentration, and the solubility of each dye was calculated from a relationship with an extinction coefficient determined beforehand. Furthermore, the value of the product of the molar extinction coefficient ε (Lmol^−1cm^−1) and the concentration C (molL^−1) of the saturated solution, εC, was determined.
Sudan Black B (manufactured by Tokyo Kasei Kogyo Co., Ltd.), which is a commercial oil-soluble black dye, was added to n-decane until a dissolution residue came to remain, and this mixture was subjected to a 30-minute ultrasonic treatment at 30 degrees. The resultant mixture was allowed to stand at 5° C. for 24 hours and then subjected to centrifugal filtration (centrifugal force, 5,200×g) with a 0.1-μm filter using a microcentrifuge. The saturated n-decane solution obtained was diluted to an adequate concentration, and the solubility of the dye was calculated from a relationship with an extinction coefficient determined beforehand.

Compound | εC
CCCCC(CC)CNc1ccc(NCC(CC)CCCC)c2c1C(=O)c1ccccc1C2=O (stereo not shown) [Comparative dye 2, reference compound] | 1200 cm⁻¹
C=Cn1c(N=Nc2ccc(N(CCCC)CCCC)cc2NC(C)=O)nc(C#N)c1C#N [Comparative dye 3, reference compound] | ≦10 cm^−1
CCCCC(CC)CN(CC(CC)CCCC)c1ccc(N=Nc2snc(C)c2C#N)c(NC(C)=O)c1 (stereo not shown) [Dye 2] | 5000 cm⁻¹
CCCCC(CC)CN(CC(CC)CCCC)c1ccc(/N=N/c2snc(C)c2C#N)c(CC)c1 (stereo not shown) [Dye 8] | 3600 cm⁻¹

same assay, conditions: Isopar G solution

Compound | λmax (absorption-maximum wavelength)
CCCCC(CC)CNc1ccc(NCC(CC)CCCC)c2c1C(=O)c1ccccc1C2=O (stereo not shown) [Comparative dye 2, reference compound] | 649 nm
CCCCC(CC)CN(CC(CC)CCCC)c1ccc(N=Nc2snc(C)c2C#N)c(NC(C)=O)c1 (stereo not shown) [Dye 2] | 542 nm
CCCCC(CC)CN(CC(CC)CCCC)c1ccc(/N=N/c2snc(C)c2C#N)c(CC)c1 (stereo not shown) [Dye 8] | 533 nm

same assay, conditions: Isopar G; saturated solution

Compound | Solubility
CCCCC(CC)CNc1ccc(NCC(CC)CCCC)c2c1C(=O)c1ccccc1C2=O (stereo not shown) [Comparative dye 2, reference compound] | 4.3%
C=Cn1c(N=Nc2ccc(N(CCCC)CCCC)cc2NC(C)=O)nc(C#N)c1C#N [Comparative dye 3, reference compound] | ≦0.01%
CCCCC(CC)CN(CC(CC)CCCC)c1ccc(N=Nc2snc(C)c2C#N)c(NC(C)=O)c1 (stereo not shown) [Dye 2] | 5.7%
CCCCC(CC)CN(CC(CC)CCCC)c1ccc(/N=N/c2snc(C)c2C#N)c(CC)c1 (stereo not shown) [Dye 8] | 5.17%

same assay, conditions: Isopar M

Compound | εC
CCCCC(CC)CNc1ccc(NCC(CC)CCCC)c2c1C(=O)c1ccccc1C2=O (stereo not shown) [Comparative dye 2, reference compound] | 1000 cm⁻¹
C=Cn1c(N=Nc2ccc(N(CCCC)CCCC)cc2NC(C)=O)nc(C#N)c1C#N [Comparative dye 3, reference compound] | ≦10 cm^−1
CCCCC(CC)CN(CC(CC)CCCC)c1ccc(N=Nc2snc(C)c2C#N)c(NC(C)=O)c1 (stereo not shown) [Dye 2] | 4000 cm⁻¹
CCCCC(CC)CN(CC(CC)CCCC)c1ccc(/N=N/c2snc(C)c2C#N)c(CC)c1 (stereo not shown) [Dye 8] | 2500 cm⁻¹

same assay, conditions: Isopar M solution

Compound | λmax (absorption-maximum wavelength)
CCCCC(CC)CNc1ccc(NCC(CC)CCCC)c2c1C(=O)c1ccccc1C2=O (stereo not shown) [Comparative dye 2, reference compound] | 650 nm
CCCCC(CC)CN(CC(CC)CCCC)c1ccc(N=Nc2snc(C)c2C#N)c(NC(C)=O)c1 (stereo not shown) [Dye 2] | 544 nm
CCCCC(CC)CN(CC(CC)CCCC)c1ccc(/N=N/c2snc(C)c2C#N)c(CC)c1 (stereo not shown) [Dye 8] | 534 nm

same assay, conditions: Isopar M; saturated solution

Compound | Solubility
CCCCC(CC)CNc1ccc(NCC(CC)CCCC)c2c1C(=O)c1ccccc1C2=O (stereo not shown) [Comparative dye 2, reference compound] | 3.6%
C=Cn1c(N=Nc2ccc(N(CCCC)CCCC)cc2NC(C)=O)nc(C#N)c1C#N [Comparative dye 3, reference compound] | ≦0.01%
CCCCC(CC)CN(CC(CC)CCCC)c1ccc(N=Nc2snc(C)c2C#N)c(NC(C)=O)c1 (stereo not shown) [Dye 2] | 4.32%
CCCCC(CC)CN(CC(CC)CCCC)c1ccc(/N=N/c2snc(C)c2C#N)c(CC)c1 (stereo not shown) [Dye 8] | 3.4%

same assay, conditions: decalin

Compound | εC
CCCCC(CC)CNc1ccc(NCC(CC)CCCC)c2c1C(=O)c1ccccc1C2=O (stereo not shown) [Comparative dye 2, reference compound] | 3400 cm⁻¹
C=Cn1c(N=Nc2ccc(N(CCCC)CCCC)cc2NC(C)=O)nc(C#N)c1C#N [Comparative dye 3, reference compound] | ≦10 cm^−1
CCCCC(CC)CN(CC(CC)CCCC)c1ccc(N=Nc2snc(C)c2C#N)c(NC(C)=O)c1 (stereo not shown) [Dye 2] | 24000 cm⁻¹

same assay, conditions: decalin solution

Compound | λmax (absorption-maximum wavelength)
CCCCC(CC)CNc1ccc(NCC(CC)CCCC)c2c1C(=O)c1ccccc1C2=O (stereo not shown) [Comparative dye 2, reference compound] | 645 nm
C=Cn1c(N=Nc2ccc(N(CCCC)CCCC)cc2NC(C)=O)nc(C#N)c1C#N [Comparative dye 3, reference compound] | 520 nm
CCCCC(CC)CN(CC(CC)CCCC)c1ccc(N=Nc2snc(C)c2C#N)c(NC(C)=O)c1 (stereo not shown) [Dye 2] | 547 nm

same assay, conditions: decalin; saturated solution

Compound | Solubility
CCCCC(CC)CNc1ccc(NCC(CC)CCCC)c2c1C(=O)c1ccccc1C2=O (stereo not shown) [Comparative dye 2, reference compound] | 9.98%
C=Cn1c(N=Nc2ccc(N(CCCC)CCCC)cc2NC(C)=O)nc(C#N)c1C#N [Comparative dye 3, reference compound] | ≦0.01%
CCCCC(CC)CN(CC(CC)CCCC)c1ccc(N=Nc2snc(C)c2C#N)c(NC(C)=O)c1 (stereo not shown) [Dye 2] | 24.5%

same assay, conditions: each of the low-polarity solvents

Compound | εC (in words)
CCCCC(CC)CNc1ccc(NCC(CC)CCCC)c2c1C(=O)c1ccccc1C2=O (stereo not shown) [Comparative dye 2, reference compound] | small value

same assay, conditions: low-polarity solvents

Compound | λmax (in words)
CCCCC(CC)CNc1ccc(NCC(CC)CCCC)c2c1C(=O)c1ccccc1C2=O (stereo not shown) [Comparative dye 2, reference compound] | large value

same assay, conditions: n-decane

Compound | εC (molar extinction coefficient × concentration of saturated solution)
CCCCC(CC)CNc1ccc(NCC(CC)CCCC)c2c1C(=O)c1ccccc1C2=O (stereo not shown) [Comparative dye 2, reference compound] | 2000 cm⁻¹
C=Cn1c(N=Nc2ccc(N(CCCC)CCCC)cc2NC(C)=O)nc(C#N)c1C#N [Comparative dye 3, reference compound] | ≦10 cm^−1
CCCCC(CC)CN(CC(CC)CCCC)c1ccc(N=Nc2snc(C)c2C#N)c(NC(C)=O)c1 (stereo not shown) [Dye 2] | 6600 cm⁻¹
CCCCC(CC)CN(CC(CC)CCCC)c1ccc(/N=N/c2snc(C)c2C#N)c(CC)c1 (stereo not shown) [Dye 8] | 6500 cm⁻¹

same assay, conditions: n-decane solution

Compound | λmax (absorption-maximum wavelength)
CCCCC(CC)CNc1ccc(NCC(CC)CCCC)c2c1C(=O)c1ccccc1C2=O (stereo not shown) [Comparative dye 2, reference compound] | 652 nm
CCCCC(CC)CN(CC(CC)CCCC)c1ccc(N=Nc2snc(C)c2C#N)c(NC(C)=O)c1 (stereo not shown) [Dye 2] | 543 nm
CCCCC(CC)CN(CC(CC)CCCC)c1ccc(/N=N/c2snc(C)c2C#N)c(CC)c1 (stereo not shown) [Dye 8] | 533 nm

same assay, conditions: n-decane; saturated solution, stood at 5° C. for 24 hours, 0.1-μm filter

Compound | Solubility
CCCCC(CC)CNc1ccc(NCC(CC)CCCC)c2c1C(=O)c1ccccc1C2=O (stereo not shown) [Comparative dye 2, reference compound] | 6.6%
C=Cn1c(N=Nc2ccc(N(CCCC)CCCC)cc2NC(C)=O)nc(C#N)c1C#N [Comparative dye 3, reference compound] | ≦0.01%
CCCCC(CC)CN(CC(CC)CCCC)c1ccc(N=Nc2snc(C)c2C#N)c(NC(C)=O)c1 (stereo not shown) [Dye 2] | 7.9%
CCCCC(CC)CN(CC(CC)CCCC)c1ccc(/N=N/c2snc(C)c2C#N)c(CC)c1 (stereo not shown) [Dye 8] | 10%

same assay, conditions: tetradecane

Compound | εC
CCCCC(CC)CNc1ccc(NCC(CC)CCCC)c2c1C(=O)c1ccccc1C2=O (stereo not shown) [Comparative dye 2, reference compound] | 1600 cm⁻¹
C=Cn1c(N=Nc2ccc(N(CCCC)CCCC)cc2NC(C)=O)nc(C#N)c1C#N [Comparative dye 3, reference compound] | ≦10 cm^−1
CCCCC(CC)CN(CC(CC)CCCC)c1ccc(N=Nc2snc(C)c2C#N)c(NC(C)=O)c1 (stereo not shown) [Dye 2] | 4900 cm⁻¹
CCCCC(CC)CN(CC(CC)CCCC)c1ccc(/N=N/c2snc(C)c2C#N)c(CC)c1 (stereo not shown) [Dye 8] | 2800 cm⁻¹

same assay, conditions: tetradecane solution

Compound | λmax (absorption-maximum wavelength)
CCCCC(CC)CNc1ccc(NCC(CC)CCCC)c2c1C(=O)c1ccccc1C2=O (stereo not shown) [Comparative dye 2, reference compound] | 651 nm
CCCCC(CC)CN(CC(CC)CCCC)c1ccc(N=Nc2snc(C)c2C#N)c(NC(C)=O)c1 (stereo not shown) [Dye 2] | 545 nm
CCCCC(CC)CN(CC(CC)CCCC)c1ccc(/N=N/c2snc(C)c2C#N)c(CC)c1 (stereo not shown) [Dye 8] | 534 nm

same assay, conditions: tetradecane; saturated solution

Compound | Solubility
CCCCC(CC)CNc1ccc(NCC(CC)CCCC)c2c1C(=O)c1ccccc1C2=O (stereo not shown) [Comparative dye 2, reference compound] | 5.7%
C=Cn1c(N=Nc2ccc(N(CCCC)CCCC)cc2NC(C)=O)nc(C#N)c1C#N [Comparative dye 3, reference compound] | ≦0.01%
CCCCC(CC)CN(CC(CC)CCCC)c1ccc(N=Nc2snc(C)c2C#N)c(NC(C)=O)c1 (stereo not shown) [Dye 2] | 5.4%
CCCCC(CC)CN(CC(CC)CCCC)c1ccc(/N=N/c2snc(C)c2C#N)c(CC)c1 (stereo not shown) [Dye 8] | 3.9%

assay: Light fastness test (retention of dye after 2 hours of high-pressure mercury lamp irradiation); type: physicochemical; conditions: Isopar G; 1 mg in 250 mL, 2 hours irradiation
Protocol: The light fastness of each dye was examined in the following manner. One milligram of each dye was dissolved in 250 mL of each of n-decane, tetradecane, Isopar M, and Isopar G, and the solution was irradiated with light for 2 hours using photoreaction apparatus UVL-400HA (400-W high-pressure mercury lamp), manufactured by Riko-Kagaku Sangyo Co., Ltd. During the irradiation, the vessel was cooled with a coolant to keep the internal temperature at 10-30° C. The retention of the dye was determined through the following calculation to evaluate the light fastness. Retention of dye=(absorbance at absorption-maximum wavelength after irradiation)/(absorbance at absorption-maximum wavelength before irradiation)

Compound | Light fastness: retention of dye
CCCCC(CC)CNc1ccc(NCC(CC)CCCC)c2c1C(=O)c1ccccc1C2=O (stereo not shown) [Comparative dye 2, reference compound] | 85%
CCCCC(CC)CN(CC(CC)CCCC)c1ccc(N=Nc2snc(C)c2C#N)c(NC(C)=O)c1 (stereo not shown) [Dye 2] | 100%

same assay, conditions: Isopar M; 1 mg in 250 mL, 2 hours irradiation

Compound | Light fastness: retention of dye
CCCCC(CC)CNc1ccc(NCC(CC)CCCC)c2c1C(=O)c1ccccc1C2=O (stereo not shown) [Comparative dye 2, reference compound] | 90%
CCCCC(CC)CN(CC(CC)CCCC)c1ccc(N=Nc2snc(C)c2C#N)c(NC(C)=O)c1 (stereo not shown) [Dye 2] | 100%

same assay, conditions: n-decane; 1 mg in 250 mL, 2 hours irradiation, 400-W high-pressure mercury lamp

Compound | Light fastness: retention of dye
CCCCC(CC)CNc1ccc(NCC(CC)CCCC)c2c1C(=O)c1ccccc1C2=O (stereo not shown) [Comparative dye 2, reference compound] | 92%
C=Cn1c(N=Nc2ccc(N(CCCC)CCCC)cc2NC(C)=O)nc(C#N)c1C#N [Comparative dye 3, reference compound] | 76%
CCCCC(CC)CN(CC(CC)CCCC)c1ccc(N=Nc2snc(C)c2C#N)c(NC(C)=O)c1 (stereo not shown) [Dye 2] | 97%

same assay, conditions: tetradecane; 1 mg in 250 mL, 2 hours irradiation

Compound | Light fastness: retention of dye
CCCCC(CC)CNc1ccc(NCC(CC)CCCC)c2c1C(=O)c1ccccc1C2=O (stereo not shown) [Comparative dye 2, reference compound] | 99%
CCCCC(CC)CN(CC(CC)CCCC)c1ccc(N=Nc2snc(C)c2C#N)c(NC(C)=O)c1 (stereo not shown) [Dye 2] | 94%
